Results reported in patent US20120115175A1, “METHODS FOR DIAGNOSING ELEVATED RIGHT OR LEFT VENTRICULAR FILLING PRESSURE” (Tufts Medical Center, Inc., priority 2010, published 2012).
Numbered stars: 1 amine (or outer) side, 2 acyl side, 3 side chain; on linkers, the order of the positions; unused ones are H or OH. Bridge positions count the residues as written; N and C are the ends. Square brackets hold non-standard residues; d marks the D form. Peptide text beside a SMILES is read from it. I, II: the chains in the order shown. Actinocin(9to1) = Cc1c2oc3c(C)ccc(C(=O)[*:1])c3nc-2c(C(=O)[*:2])c(N)c1=O; NMeV = CN[C@H](C(=O)O)C(C)C; Sar = CNCC(=O)O

Tested on: human cardiac fibroblasts (hCF)
Test: Cyclic mechanical stretch of human cardiac fibroblasts: endoglin mRNA (qRT-PCR), endoglin protein (Western blot), sEng release (ELISA)
Format: cell-based
Details: for stretch-induced endoglin mRNA expression: pre-treated 1 μM for 2 hours prior to mechanical stretch (10% cyclic stretch, 1 Hz), qRT-PCR
Protocol: As a first step towards understanding increased endoglin expression in heart failure, we exposed cardiac fibroblasts to cyclic mechanical stretch in vitro using a FlexCell apparatus. Briefly, human cardiac fibroblasts (hCF) were cultured onto silastic membranes and exposed to 10% cyclic stretch (1 Hz) for various time points in fibroblast basal media (FBM). We identified a rapid increase in sEng release by enzyme-linked immunosorbent assay (ELISA), followed by increased endoglin mRNA expression by quantitative real-time PCR (qRT-PCR) (FIG. 7).
To begin exploring the mechanism underlying stretch-induced endoglin expression, we pre-treated cultured hCF in FBM with actinomycin-D (Act-D; 1 μM), SB-431542 (an ALK-5 inhibitor; 1 μM), or anti-TGFβ1 antibodies (10 ng/mL, R&D Systems) for 2 hours prior to mechanical stretch. […] Furthermore, ERK-inhibition with 10 μM PD98059 attenuated stretch-induced mEng protein expression and sEng release by Western blot and ELISA (FIG. 9).

[1] = hCF in FBM, pre-treated 1 μM for 2 hours prior to mechanical stretch, ELISA

SMILES	endoglin protein expression (hCF in FBM, pre-treated 1 μM for 2 hours prior to mechanical stretch)	stretch-induced endoglin mRNA expression (hCF in FBM)	sEng release [1]	stretch-induced sEng release (hCF, 10 μM, ELISA)	stretch-induced mEng protein expression (hCF, 10 μM, Western blot)
Cc1c2oc3c(C)ccc(C(=O)N[C@@H]4C(=O)N[C@H](C(C)C)C(=O)N5CCC[C@H]5C(=O)N(C)CC(=O)N(C)[C@@H](C(C)C)C(=O)O[C@@H]4C)c3nc-2c(C(=O)N[C@@H]2C(=O)N[C@H](C(C)C)C(=O)N3CCC[C@H]3C(=O)N(C)CC(=O)N(C)[C@@H](C(C)C)C(=O)O[C@@H]2C)c(N)c1=O [Act-D, actinomycin-D] (I: T[dV]P[Sar][NMeV] / II: T[dV]P[Sar][NMeV]; ester I:1-I:C, II:1-II:C; linker I:N-II:N via Actinocin(9to1))	minimal effect	abolished	minimal effect	–	–
NC(=O)c1ccc(-c2nc(-c3ccc4c(c3)OCO4)c(-c3ccccn3)[nH]2)cc1 [SB-431542]	–	partially attenuated	failed to inhibit	–	–
COc1cccc(-c2cc(=O)c3ccccc3o2)c1N [PD98059]	–	–	–	attenuated	attenuated
